Assay results: patent US20140249143A1, “Compounds And Methods For Enhancing Innate Immune Responses” (GlaxoSmithKline LLC, priority 2011, published 2014)

How the values were obtained:
[1] = test system: interferon stimulated genes (ISGs); assay: Expression of interferon stimulated genes in HCV replicon cells (real time RT-PCR); format: cell-based
From the text: The up-regulation of interferon stimulated genes upon treatment with Example 1 was monitored by quantitative real time RT-PCR using specific primers for each gene, as shown in FIG. 3. […] Total RNA was isolated using RNeasy 96 kit (Qiagen) and converted to cDNA using High Capacity cDNA reverse transcription kit (Applied Biosystems). For real time PCR, the cDNA was used for PCR reactions using TaqMan Fast Universal PCR master mix (Applied Biosystems) and specific primers (Applied Biosystems). As housekeeping genes, actin and GAPDH were used for normalization. Data was calculated by the ΔΔCt method and fold change determined compared to DMSO-treated control samples.

[2] = test system: respiratory syncytial virus (RSV); assay: RSV plaque assay on HEp-2 cells; format: cell-based
Description: A broad spectrum of antiviral activity of Example 1 was accessed by testing it for potency against other viruses. (See FIG. 8). […] RSV (long form) was inoculated on the layer of HEp-2 cells at multiplicity of infection of <0.001. After 4 hour post infection, the inoculum was replaced with 0.3% agarose containing MEM and various concentration of Example 1 or IFNα. The cells were incubated for up to 5-6 days until the plaques were visible. The cells were then fixed with 3% formaldehyde and stained with neutral red for visualization.

ISGs and cytokines mRNA = assay: Induction of ISGs in mice in vivo; parameters: species or system Balb/c mice
Description: Naive Balb/c mice were purchased from Charles River Laboratories (Wilmington, Mass.) and administered with murine IFNα2 (30 ug/kg) intravenously or administered with oral Example 1 (300 mg/kg in 30/70% solutol/polyethylene glycol 400). The mice were then euthanized by CO2 inhalation at 0.5, 2, 6, 8, and 24 hours for sample collection. Four mice per dose group were tested.
For RNA isolation, the blood was collected in an RNAprotect™ tube (Qiagen) and processed with RNeasy Protect™ animal blood kit (Qiagen) according to the manufacturer's protocol. To preserve RNA, 30-200 mg of tissue pieces were stored in RNAlater™ solution (Invitrogen) until use. For RNA isolation, the thawed tissues were homogenized using a TissueLyser™ system (Qiagen) and processed with RNeasy 96 Universal Tissue Kit™ (Qiagen) according to the manufacturer's protocol. To remove DNA contamination, on-plate DNase digestion was included during the RNA purification.
(§1) For real time RT-PCR, cDNA was made using High Capacity cDNA Reverse Transcription Kit™ (Applied Biosystems). Gene expression was measured using TaqMan Fast Universal PCR Master Mix™ (Applied Biosystems) and gene specific probes and murine primers in HT7900 FAST System™ (Invitrogen). As housekeeping genes, actin and GAPDH were used for normalization. Data was calculated by the ΔΔCt method and fold change determined compared to non-treated control samples.

human JAK1 = target: T1, human JAK1 (Homo sapiens, UniProt P23458); assay: JAK1 reconstitution in U4A and 2fGH cells (phosphor-STAT1 western blot, Taqman mRNA); format: cell-based
T1 construct: expressed in transfected cells; host or cells: U4A cells (JAK1-deficient derivative of the human fibroblast line 2fGH), transduced with a baculovirus mammalian expression system
T1 sequence (P23458 whole entry): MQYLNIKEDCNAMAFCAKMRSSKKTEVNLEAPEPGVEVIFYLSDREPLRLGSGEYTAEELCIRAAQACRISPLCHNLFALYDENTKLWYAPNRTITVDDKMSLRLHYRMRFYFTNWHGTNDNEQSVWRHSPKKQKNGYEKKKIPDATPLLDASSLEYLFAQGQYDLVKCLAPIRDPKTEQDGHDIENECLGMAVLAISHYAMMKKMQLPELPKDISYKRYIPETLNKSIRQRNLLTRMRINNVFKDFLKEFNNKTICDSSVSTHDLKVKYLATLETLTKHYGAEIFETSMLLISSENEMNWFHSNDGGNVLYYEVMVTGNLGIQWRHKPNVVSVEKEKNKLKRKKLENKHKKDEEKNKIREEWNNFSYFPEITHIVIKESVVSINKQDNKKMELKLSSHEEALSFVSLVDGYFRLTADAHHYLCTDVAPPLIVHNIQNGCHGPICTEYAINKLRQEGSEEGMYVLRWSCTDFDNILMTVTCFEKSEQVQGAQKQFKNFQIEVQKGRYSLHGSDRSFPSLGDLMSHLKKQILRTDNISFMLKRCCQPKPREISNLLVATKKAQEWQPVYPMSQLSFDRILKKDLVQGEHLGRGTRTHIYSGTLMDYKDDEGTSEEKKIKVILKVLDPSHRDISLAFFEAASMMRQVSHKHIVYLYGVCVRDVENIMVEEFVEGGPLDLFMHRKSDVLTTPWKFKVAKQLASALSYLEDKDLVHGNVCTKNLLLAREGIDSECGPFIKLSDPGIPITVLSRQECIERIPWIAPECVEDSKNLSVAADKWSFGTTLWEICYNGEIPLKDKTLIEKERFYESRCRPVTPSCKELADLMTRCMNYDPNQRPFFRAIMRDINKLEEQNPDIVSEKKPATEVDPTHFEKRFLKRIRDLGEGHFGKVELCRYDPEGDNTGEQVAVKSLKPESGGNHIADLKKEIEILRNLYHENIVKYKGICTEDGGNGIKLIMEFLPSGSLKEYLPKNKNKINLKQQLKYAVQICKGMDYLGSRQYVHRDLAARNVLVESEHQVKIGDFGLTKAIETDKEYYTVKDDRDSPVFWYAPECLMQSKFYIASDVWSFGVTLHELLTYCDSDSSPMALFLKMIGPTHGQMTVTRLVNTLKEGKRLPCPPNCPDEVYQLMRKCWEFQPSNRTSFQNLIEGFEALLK
Description: 2fGH and U4A cells were obtained from the Cleveland Clinic. 2fGH is a human fibroblast cell line and U4A cell line is a derivative 2fGH harboring a defect in JAK1 expression (Muller, et al., Nature 366, 129-135 (1993)). Green fluoroscent protein (GFP) or human JAK1 was transduced in U4A cells by baculovirus mammalian expression system. After 24 hours post transduction, the cells were treated with DMSO, Example 1 (10 μM), IFNα (100 U/ml), IFNβ (100 U/ml), or IFNγ (100 U/ml). Untransduced U4A cells and 2fGH cells were included as controls for 6 or 18 hours. The cells were harvested at indicated time points and used for detecting phosphor-STAT1 by western blot (FIG. 10, panel A) or for mRNA analysis by Taqman quantitation (FIG. 10, panel B).
The total cell lysates were analyzed on a 4-20% SDS-PAGE gradient gel and followed by immunoblotting using anti-phopho STAT1 antibody (Cell Signaling). The level of actin was monitored as a loading control. The bands were visualized by the alkaline phosphatase activity conjugated with the secondary antibody (Promega) using ProtoBlot II AP system (Promega).
as §1, with “Gene” for “For real time RT-PCR, cDNA was made using High Capacity cDNA Reverse Transcription Kit™ (Applied Biosystems). Gene”, “Mix” for “Mix™”, “System” for “System™”

[3] = test system: IFN mediated JAK/STAT pathway (ISG54 promoter); assay: Activation of the JAK/STAT pathway in HEKBlue IFN-α/β cells (SEAP); format: cell-based; conditions: HEK-Blue; 24 h, QUANTI-Blue, OD 650 nm; read-out: EC50 of activation of the JAK/STAT pathway (secreted alkaline phosphatase)
Description: The cells were incubated for 24 h in the presence of several treatments (Example 1, IFNα, and IFNλ3) and the supernatants were measured for the amount of the secreted alkaline phosphatase using QUANTI-Blue™ (InvivoGen) at the optical density of 650 nm. […] The activation of the pathway by IFNα (PBL) and IFNλ3 (R&D Systems Inc.) are shown as positive controls.

## FC(F)(F)c1cc(C(F)(F)F)c2ccc3nc(-c4nnco4)cn3c2n1 [Compound 1, 2-[2,4-bis(trifluoromethyl)imidazo[1,2-a]1,8-naphthyridin-8-yl]-1,3,4-oxadiazole]
[1]; 2 μM
  induction of IFNα and β mRNA (IFNA1, IFNA2, IFNB1): no induction
[1]; 2 μM, time course 1.5-48 h
  induction of ISGs (ISG15, Mx1, OAS1, OAS2, CXCL10, IFIH1, STAT2): induction of various known ISGs
[1]; Example 1 2 μM, IFNα 100 U/ml
  time of maximum induction of ISGs: 8 h
[2]; 1 μM, compared to DMSO-only
  RSV plaques: reduced the number of plaques
[2]; 5 μM
  RSV plaques: no visible clear plaque
ISGs and cytokines mRNA; Example 1 oral 300 mg/kg, murine IFNα2 30 ug/kg intravenously
  up-regulation of ISGs at 24 hours: appeared to sustain
ISGs and cytokines mRNA; oral 300 mg/kg, Balb/c mice
  mRNA for Mx1, OAS1A, OAS2, CXCL10, ISG15, and IL6: marked increase
Human JAK1; 10 μM
  CXCL9 expression in U4A cells transduced with JAK1: marked up-regulation
  OAS2 mRNA in parental cell line (2fGH): marked increase
Human JAK1; Example 1 10 μM, IFNα 100 U/ml
  activation of STAT1 in U4A cells transduced with JAK1: activation of STAT1 was observed
  p-STAT1 in U4A cells (JAK1 deficient) transduced with GFP: not present
[3]
  EC50: ~1 µM
